Test results as given in patent publication US20070128217A1 (priority 2003, published 2007).

Key:
[1] = tested on: control sera (pooled serum of ten healthy LUMC hospital workers; commercial negative donor pooled serum from the Dutch bloodbank); format: binding, human; set-up: Binding of Control serum LUMC to linear peptides / Binding of Control serum Blood-bank to linear peptides / Binding of Control serum LUMC to looped peptides / Binding of Control Serum Blood-Bank to Looped peptides / Binding of Control serum LUMC to linear peptides of the protein M of SARS-CoV Urbani / Binding of Control serum Blood-bank to linear peptides of the protein M of SARS-CoV Urbani / Binding of Control serum LUMC to looped peptides of the protein M of SARS-CoV Urbani / Binding of Control Serum Blood-Bank to Looped peptides of the protein M of SARS-CoV Urbani: unit not given here
[2] = tested on: antibodies in sera from SARS patients (sera 1a, 1b, 2, 6, 37, 62, London, SARS-yellow, SARS-green); format: binding, human; set-up: Binding of serum 6 to linear peptides of protein X1 of SARS-CoV Urbani / Binding of serum 37 to linear peptides of protein X1 of SARS-CoV Urbani / Binding of serum 6 to looped/cyclic peptide (PEPSCAN-ELISA) / Binding of serum 37 to looped/cyclic peptide (PEPSCAN-ELISA) / Binding of serum 37 to looped/cyclic peptides of protein X1 of SARS-CoV Urbani / Binding of serum 6 to linear peptides of protein X2 / Binding of serum 37 to linear peptides of protein X2 / Binding of serum 37 to looped/cyclic peptides of protein X2 of SARS-CoV Urbani / Binding of serum 6 to linear peptides of protein M of SARS-CoV Urbani / Binding of serum 37 to linear peptides of protein M of SARS-CoV Urbani / Binding of serum 6 to looped/cyclic peptides of protein M of SARS-CoV Urbani / Binding of serum 37 to looped/cyclic peptides of protein M of SARS-CoV Urbani / Binding of serum 6 to linear peptides of protein X3 of SARS-CoV Urbani / Binding of serum 37 to linear peptides of protein X3 of SARS-CoV Urbani / Binding of serum 37 to looped/cyclic peptides of protein X3 of SARS-CoV Urbani / Binding of serum 6 to linear peptides of protein X4 of SARS-CoV Urbani / Binding of serum 37 to linear peptides of protein X4 of SARS-CoV Urbani / Binding of serum 37 to looped/cyclic peptides of protein X4 of SARS-CoV Urbani / Binding of serum 6 to linear peptides of protein X5 of SARS-CoV Urbani / Binding of serum 37 to linear peptides of protein X5 of SARS-CoV Urbani / Binding of serum 37 to looped/cyclic peptides of protein X5 of SARS-CoV Urbani / Binding of serum 6 to linear peptides of protein N of SARS-CoV Urbani / Binding of serum 37 to linear peptides of protein N of SARS-CoV Urbani / Binding of serum 6 to linear peptide (PEPSCAN-ELISA) / Binding of serum 1a to looped/cyclic peptides of protein N of SARS-CoV Urbani / Binding of serum 1b to looped/cyclic peptides of protein N of SARS-CoV Urbani / Binding of serum 2 to looped/cyclic peptides of protein N of SARS-CoV Urbani / Binding of serum 6 to looped/cyclic peptides of protein N of SARS-CoV Urbani / Binding of serum 37 to looped/cyclic peptides of protein N of SARS-CoV Urbani / Binding of serum 62 to looped/cyclic peptides of protein N of SARS-CoV Urbani / Binding of serum London to looped/cyclic peptides of protein N of SARS-CoV Urbani / Binding of serum SARS-green to looped/cyclic peptides of protein N of SARS-CoV Urbani: unit not given here

Sequence: FICNLLLLFVTTYSH
- Binding of Control Serum Blood-Bank to Looped peptides [1]: 0.5
- Binding of Control serum Blood-bank to linear peptides [1]: 0.6
- Binding of Control serum LUMC to linear peptides [1]: 0.5
- Binding of Control serum LUMC to looped peptides [1]: 0.5

Sequence: GHPLGRCDIKDLPKE
- Binding of Control Serum Blood-Bank to Looped peptides of the protein M of SARS-CoV Urbani [1]: 0.7
- Binding of Control serum Blood-bank to linear peptides of the protein M of SARS-CoV Urbani [1]: 0.6
- Binding of Control serum LUMC to linear peptides of the protein M of SARS-CoV Urbani [1]: 0.6
- Binding of Control serum LUMC to looped peptides of the protein M of SARS-CoV Urbani [1]: 0.7

Sequence: IAMACIVGLMWLSYF
- Binding of serum 1a to linear peptides of protein M of SARS-CoV Urbani [2]: 0.6
- Binding of serum 1a to looped/cyclic peptides of protein M of SARS-CoV Urbani [2]: 0.6
- Binding of serum 1b to linear peptides of protein M of SARS-CoV Urbani [2]: 0.5
- Binding of serum 1b to looped/cyclic peptides of protein M of SARS-CoV Urbani [2]: 0.4
- Binding of serum 2 to linear peptides of protein M of SARS-CoV Urbani [2]: 0.4
- Binding of serum 2 to looped/cyclic peptides of protein M of SARS-CoV Urbani [2]: 0.4
- Binding of serum 6 to linear peptides of protein M of SARS-CoV Urbani [2]: 0.3
- Binding of serum 6 to looped/cyclic peptides of protein M of SARS-CoV Urbani [2]: 0.7
- Binding of serum 37 to linear peptides of protein M of SARS-CoV Urbani [2]: 0.3
- Binding of serum 37 to looped/cyclic peptides of protein M of SARS-CoV Urbani [2]: 0.4
- Binding of serum 62 to linear peptides of protein M of SARS-CoV Urbani [2]: 0.3
- Binding of serum 62 to looped/cyclic peptides of protein M of SARS-CoV Urbani [2]: 0.4
- Binding of serum London to linear peptides of protein M of SARS-CoV Urbani [2]: 0.3
- Binding of serum London to looped/cyclic peptides of protein M of SARS-CoV Urbani [2]: 0.2
- Binding of serum SARS-green to linear peptides of protein M of SARS-CoV Urbani [2]: 0.3
- Binding of serum SARS-green to looped/cyclic peptides of protein M of SARS-CoV Urbani [2]: 0.3
- Binding of serum SARS-yellow to linear peptides of protein M of SARS-CoV Urbani [2]: 0.2
- Binding of serum SARS-yellow to looped/cyclic peptides of protein M of SARS-CoV Urbani [2]: 0.6
- Binding of Control Serum Blood-Bank to Looped peptides of the protein M of SARS-CoV Urbani [1]: 0.6
- Binding of Control serum Blood-bank to linear peptides of the protein M of SARS-CoV Urbani [1]: 0.5
- Binding of Control serum LUMC to linear peptides of the protein M of SARS-CoV Urbani [1]: 0.6
- Binding of Control serum LUMC to looped peptides of the protein M of SARS-CoV Urbani [1]: 0.7

Sequence: IGVAFLAVPQSATKI
- Binding of Control Serum Blood-Bank to Looped peptides [1]: 0.5
- Binding of Control serum Blood-bank to linear peptides [1]: 0.8
- Binding of Control serum LUMC to linear peptides [1]: 0.8
- Binding of Control serum LUMC to looped peptides [1]: 0.5

Sequence: IMRCWLCWKCKSKNP
- Binding of serum 1a to looped/cyclic peptide (PEPSCAN-ELISA) [2]: 0.3
- Binding of serum 1b to looped/cyclic peptide (PEPSCAN-ELISA) [2]: 0.1
- Binding of serum 2 to looped/cyclic peptide (PEPSCAN-ELISA) [2]: 0.1
- Binding of serum 6 to looped/cyclic peptide (PEPSCAN-ELISA) [2]: 0.2
- Binding of serum 37 to looped/cyclic peptide (PEPSCAN-ELISA) [2]: 0.3
- Binding of serum 62 to looped/cyclic peptide (PEPSCAN-ELISA) [2]: 0.3
- Binding of serum London to looped/cyclic peptide (PEPSCAN-ELISA) [2]: 0.1
- Binding of serum SARS-green to looped/cyclic peptide (PEPSCAN-ELISA) [2]: 0.1
- Binding of serum SARS-yellow to looped/cyclic peptide (PEPSCAN-ELISA) [2]: 0.0
- Recognition of the peptide by sera of SARS-CoV infected individuals, and form (linear, looped/cyclic) in which it is recognized [2]: recognized in linear form
- Binding of Control Serum Blood-Bank to Looped peptides [1]: 0.4
- Binding of Control serum Blood-bank to linear peptides [1]: 0.5
- Binding of Control serum LUMC to linear peptides [1]: 0.5
- Binding of Control serum LUMC to looped peptides [1]: 0.2

Sequence: MVQTGTPNVTINCQD
- Binding of Control Serum Blood-Bank to Looped peptides [1]: 0.3
- Binding of Control serum Blood-bank to linear peptides [1]: 0.8
- Binding of Control serum LUMC to linear peptides [1]: 0.6
- Binding of Control serum LUMC to looped peptides [1]: 0.3

Sequence: RCWLGWKCKSKNPLL
- Binding of Control Serum Blood-Bank to Looped peptides [1]: 0.7
- Binding of Control serum Blood-bank to linear peptides [1]: 1.2
- Binding of Control serum LUMC to linear peptides [1]: 1.0
- Binding of Control serum LUMC to looped peptides [1]: 0.7

Sequence: SLTSLLKTHRMCKYT
- Binding of serum 1a to linear peptides of protein X2 [2]: 0.8
- Binding of serum 1a to looped/cyclic peptides of protein X2 of SARS-CoV Urbani [2]: 0.3
- Binding of serum 1b to linear peptides of protein X2 [2]: 0.4
- Binding of serum 1b to looped/cyclic peptides of protein X2 of SARS-CoV Urbani [2]: 0.3
- Binding of serum 2 to linear peptides of protein X2 [2]: 0.4
- Binding of serum 2 to looped/cyclic peptides of protein X2 of SARS-CoV Urbani [2]: 0.1
- Binding of serum 6 to linear peptides of protein X2 [2]: 0.4
- Binding of serum 6 to looped/cyclic peptides of protein X2 of SARS-CoV Urbani [2]: 0.2
- Binding of serum 37 to linear peptides of protein X2 [2]: 0.3
- Binding of serum 37 to looped/cyclic peptides of protein X2 of SARS-CoV Urbani [2]: 0.2
- Binding of serum 62 to linear peptides of protein X2 [2]: 0.7
- Binding of serum 62 to looped/cyclic peptides of protein X2 of SARS-CoV Urbani [2]: 0.4
- Binding of serum London to linear peptides of protein X2 [2]: 0.4
- Binding of serum London to looped/cyclic peptides of protein X2 of SARS-CoV Urbani [2]: 0.2
- Binding of serum SARS-green to linear peptides of protein X2 [2]: 0.5
- Binding of serum SARS-green to looped/cyclic peptides of protein X2 of SARS-CoV Urbani [2]: 0.2
- Binding of serum SARS-yellow to linear peptides of protein X2 [2]: 0.3
- Binding of serum SARS-yellow to looped/cyclic peptides of protein X2 of SARS-CoV Urbani [2]: 0.3

Sequence: TGTLIVNSVLLPLAF
- Binding of serum 1a to linear peptides of protein E of SARS-CoV Urbani [2]: 0.7
- Binding of serum 1b to linear peptides of protein E of SARS-CoV Urbani [2]: 0.5
- Binding of serum 2 to linear peptides of protein E of SARS-CoV Urbani [2]: 0.3
- Binding of serum 6 to linear peptides of protein E of SARS-CoV Urbani [2]: 0.6
- Binding of serum 37 to linear peptides of protein E of SARS-CoV Urbani [2]: 0.7
- Binding of serum 62 to linear peptides of protein E of SARS-CoV Urbani [2]: 0.6
- Binding of serum London to linear peptides of protein E of SARS-CoV Urbani [2]: 0.4
- Binding of serum SARS-green to linear peptides of protein E of SARS-CoV Urbani [2]: 0.4
- Binding of serum SARS-yellow to linear peptides of protein E of SARS-CoV Urbani [2]: 0.2

Sequence: TTVYHTTVSQIQLSL
- Binding of Control Serum Blood-Bank to Looped peptides [1]: 0.6
- Binding of Control serum Blood-bank to linear peptides [1]: 0.6
- Binding of Control serum LUMC to linear peptides [1]: 0.7
- Binding of Control serum LUMC to looped peptides [1]: 0.5

Sequence: VQQELYSPLFLIVAA
- Binding of serum 1a to linear peptides of protein X4 of SARS-CoV Urbani [2]: 0.7
- Binding of serum 1a to looped/cyclic peptides of protein X4 of SARS-CoV Urbani [2]: 0.8
- Binding of serum 1b to linear peptides of protein X4 of SARS-CoV Urbani [2]: 0.6
- Binding of serum 1b to looped/cyclic peptides of protein X4 of SARS-CoV Urbani [2]: 0.5
- Binding of serum 2 to linear peptides of protein X4 of SARS-CoV Urbani [2]: 0.6
- Binding of serum 2 to looped/cyclic peptides of protein X4 of SARS-CoV Urbani [2]: 0.7
- Binding of serum 6 to linear peptides of protein X4 of SARS-CoV Urbani [2]: 0.9
- Binding of serum 6 to looped/cyclic peptides of protein X4 of SARS-CoV Urbani [2]: 0.5
- Binding of serum 37 to linear peptides of protein X4 of SARS-CoV Urbani [2]: 0.7
- Binding of serum 37 to looped/cyclic peptides of protein X4 of SARS-CoV Urbani [2]: 0.7
- Binding of serum 62 to linear peptides of protein X4 of SARS-CoV Urbani [2]: 0.7
- Binding of serum 62 to looped/cyclic peptides of protein X4 of SARS-CoV Urbani [2]: 0.7
- Binding of serum London to linear peptides of protein X4 of SARS-CoV Urbani [2]: 0.9
- Binding of serum London to looped/cyclic peptides of protein X4 of SARS-CoV Urbani [2]: 0.3
- Binding of serum SARS-green to linear peptides of protein X4 of SARS-CoV Urbani [2]: 0.6
- Binding of serum SARS-green to looped/cyclic peptides of protein X4 of SARS-CoV Urbani [2]: 0.4
- Binding of serum SARS-yellow to linear peptides of protein X4 of SARS-CoV Urbani [2]: 0.5
- Binding of serum SARS-yellow to looped/cyclic peptides of protein X4 of SARS-CoV Urbani [2]: 0.8
- Recognition of the peptide by sera of SARS-CoV infected individuals, and form (linear, looped/cyclic) in which it is recognized [2]: recognized in looped/cyclic form
- Binding of Control Serum Blood-Bank to Looped peptides [1]: 0.7
- Binding of Control serum Blood-bank to linear peptides [1]: 0.6
- Binding of Control serum LUMC to linear peptides [1]: 0.5
- Binding of Control serum LUMC to looped peptides [1]: 0.6
